Patent US8916526B2, “Flavanone derivative” (National University Corporation Okayama University, priority 2009, dated 2014)
pIC50: −log10 of the molar value. In brackets after ≈: the same amount, converted by molar mass. Like-named read-outs stand apart in the source and are kept apart here.

Assays:
[1] = tested on: Vancomycin intermediate-resistant Staphylococcus aureus Mu50; test: In vitro infectivity assay (MIC), Exp. Ex. 2-1; assay type: cell-based; details: Gram-positive, microdilution, MIC after 24 h
Method: (§1) The antibacterial activities were measured based on broth dilution techniques of international standards (Clinical Laboratory Standards Institute: CLSI). The activities were shown by minimum inhibitory concentrations (MICs) determined by inoculating the above-mentioned strains at a concentration of about 10^5 […] into Mueller-Hinton broth (manufactured by Difco) containing 0.85% NaCl in 96-well microplates and incubating the plates at 35° C. for 24 hours. Measurement was carried out three times.
(§2) The antibacterial activities of the compounds of the present invention against various strains such as vancomycin-resistant enterococci (VRE), vancomycin intermediate-resistant Staphylococcus aureus (VISA), methicillin-resistant Staphylococcus aureus (MRSA), and methicillin-sensitive Staphylococcus aureus (MSSA) were examined. Of the bacteria used in MIC measurement in this test example, clinical bacteria of MRSA (OM481 strain and OM584 strain) were supplied from Okayama University Hospital (Japan). An MRSA strain N315, a vancomycin intermediate-resistant Staphylococcus aureus (VISA) strain Mu50, and a methicillin-sensitive Staphylococcus aureus (MSSA) strain FDA 209P were used as controls. Vancomycin-resistant enterococcus (VRE) strains NCTC 12201 and FN-1 were supplied from the National Institute of Infectious Disease (Japan).

[2] = tested on: Vancomycin-resistant enterococci FN-1; test: In vitro infectivity assay (MIC), Exp. Ex. 2-1; assay type: cell-based; details: Gram-positive, microdilution, MIC after 24 h
Method: as §1, §2

[3] = tested on: Vancomycin-resistant enterococci NCTC 12201; test: In vitro infectivity assay (MIC), Exp. Ex. 2-1; assay type: cell-based; details: Gram-positive, microdilution, MIC after 24 h
Method: as §1, §2

[4] = tested on: Methicillin sensitive S. aureus 209P; test: In vitro infectivity assay (MIC), Exp. Ex. 2-1; assay type: cell-based, Staphylococcus aureus; details: Gram-positive, microdilution, MIC after 24 h
Method: as §1, §2

[5] = tested on: Methicillin-resistant S. aureus COL; test: In vitro infectivity assay (MIC), Exp. Ex. 2-1; assay type: cell-based, Staphylococcus aureus; details: Gram-positive, microdilution, MIC after 24 h
Method: as §1, §2

[6] = tested on: Methicillin-resistant S. aureus N315; test: In vitro infectivity assay (MIC), Exp. Ex. 2-1; assay type: cell-based, Staphylococcus aureus; details: Gram-positive, microdilution, MIC after 24 h
Method: as §1, §2

[7] = tested on: Methicillin-resistant S. aureus OM481; test: In vitro infectivity assay (MIC), Exp. Ex. 2-1; assay type: cell-based, Staphylococcus aureus; details: Gram-positive, microdilution, MIC after 24 h
Method: as §1, §2

[8] = tested on: Methicillin-resistant S. aureus OM584; test: In vitro infectivity assay (MIC), Exp. Ex. 2-1; assay type: cell-based, Staphylococcus aureus; details: Gram-positive, microdilution, MIC after 24 h
Method: as §1, §2

[9] = tested on: Streptococcus pneumoniae R6; test: In vitro infectivity assay (MIC), Exp. Ex. 2-1; assay type: cell-based; details: Gram-positive, microdilution, MIC after 24 h
[10] = tested on: Escherichia coli K-12; test: Antibacterial activity (MIC) against Gram-negative strains, microdilution; assay type: cell-based; details: for MIC (Gram-nagative) K-12: MIC after 24 h
Method: as §1

[11] = tested on: Pseodomonas aeruginosa PAOI; test: as above; assay type: cell-based; details: MIC after 24 h
Method: as §1

[12] = molecular target: T1, E. coli DNA gyrase (Escherichia coli, UniProt P0AES4+P0AES6); test: DNA gyrase inhibition (supercoiling kit), Exp. Ex. 2-2; assay type: biochemical
T1 construct: purchased John Innes Enterprises #K0001
T1 sequence (P0AES4 whole entry, one chain of several): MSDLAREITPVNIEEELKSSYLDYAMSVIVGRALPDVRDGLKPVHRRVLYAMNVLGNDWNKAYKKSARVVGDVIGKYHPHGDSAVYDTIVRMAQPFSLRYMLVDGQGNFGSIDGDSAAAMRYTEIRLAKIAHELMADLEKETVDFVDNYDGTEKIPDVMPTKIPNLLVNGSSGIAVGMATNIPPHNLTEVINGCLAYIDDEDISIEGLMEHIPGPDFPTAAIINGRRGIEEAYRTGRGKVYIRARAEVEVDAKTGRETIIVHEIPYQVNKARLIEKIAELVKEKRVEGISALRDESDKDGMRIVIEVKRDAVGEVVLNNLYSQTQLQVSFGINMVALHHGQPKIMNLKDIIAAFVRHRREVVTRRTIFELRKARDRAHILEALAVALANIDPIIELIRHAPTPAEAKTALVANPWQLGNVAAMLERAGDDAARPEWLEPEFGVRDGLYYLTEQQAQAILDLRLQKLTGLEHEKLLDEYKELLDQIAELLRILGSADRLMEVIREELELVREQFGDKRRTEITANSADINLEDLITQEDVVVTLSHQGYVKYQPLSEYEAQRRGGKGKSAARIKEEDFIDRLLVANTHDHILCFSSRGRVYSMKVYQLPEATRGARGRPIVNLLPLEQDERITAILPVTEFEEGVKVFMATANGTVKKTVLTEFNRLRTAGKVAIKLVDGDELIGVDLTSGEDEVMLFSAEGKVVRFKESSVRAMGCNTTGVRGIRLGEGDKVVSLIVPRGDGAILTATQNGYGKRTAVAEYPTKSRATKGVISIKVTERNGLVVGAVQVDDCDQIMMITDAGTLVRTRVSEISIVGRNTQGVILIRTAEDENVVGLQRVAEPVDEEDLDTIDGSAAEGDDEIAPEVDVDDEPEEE
Method: As a kit for measurement of DNA gyrase of Escherichia coli, a product purchased from John Innes Enterprises (Gyrase Supercoiling assay kit #K0001) was used. Relaxed DNA was modified with gyrase into supercoiled DNA, and reaction products were separated by electrophoresis depending on the sizes of the molecular weights to examine anti-gyrase effects (IC50). 1 unit (1 U) of DNA gyrase and […] of relaxed pBR322 DNA were added to […] of the reaction solution, and the mixture was allowed to react at 37° C. for 30 minutes in the presence of 35 mM Tris-HCl (pH 7.5), 24 mM KCl, 4 mM MgCl2, 2 mM DTT, 1.8 mM spermidine, 1 mM ATP, 6.5% (w/v) glycerol, and 0.1 mg/ml BSA. The reactions were stopped using […] of a reaction stop solution (40% sucrose, 100 mM Tris-HCl (pH 7.5), 1 mM EDTA, 0.5 mg/ml bromophenol blue).

[13] = molecular target: T2, Escherichia coli Topoisomerase IV (Escherichia coli, UniProt P0AFI2+P20083); test: Topoisomerase IV inhibition (decatenation kit), Exp. Ex. 2-3; assay type: biochemical; details: decatenation of kDNA, 37° C., 30 minutes; read-out: IC50 (E. coli topoisomerase IV inhibitions)
T2 construct: purchased John Innes Enterprises
T2 sequence (P20083 whole entry): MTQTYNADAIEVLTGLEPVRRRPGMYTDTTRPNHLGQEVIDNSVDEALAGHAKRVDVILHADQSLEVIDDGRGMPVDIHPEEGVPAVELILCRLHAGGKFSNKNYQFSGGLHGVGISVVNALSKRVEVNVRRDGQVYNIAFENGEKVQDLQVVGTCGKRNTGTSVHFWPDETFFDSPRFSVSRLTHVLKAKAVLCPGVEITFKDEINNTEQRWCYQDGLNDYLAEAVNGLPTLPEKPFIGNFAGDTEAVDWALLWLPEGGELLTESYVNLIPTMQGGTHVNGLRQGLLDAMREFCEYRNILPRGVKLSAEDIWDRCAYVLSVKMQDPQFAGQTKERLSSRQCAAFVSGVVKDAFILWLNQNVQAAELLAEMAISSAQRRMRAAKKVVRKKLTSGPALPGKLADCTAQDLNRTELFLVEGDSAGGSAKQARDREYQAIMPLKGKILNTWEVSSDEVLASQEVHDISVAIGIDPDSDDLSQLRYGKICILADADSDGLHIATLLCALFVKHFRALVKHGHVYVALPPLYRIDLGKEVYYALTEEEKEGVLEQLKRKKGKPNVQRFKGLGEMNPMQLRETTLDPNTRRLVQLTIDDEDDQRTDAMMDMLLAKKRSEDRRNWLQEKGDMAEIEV
T2 sequence (P0AFI2 whole entry): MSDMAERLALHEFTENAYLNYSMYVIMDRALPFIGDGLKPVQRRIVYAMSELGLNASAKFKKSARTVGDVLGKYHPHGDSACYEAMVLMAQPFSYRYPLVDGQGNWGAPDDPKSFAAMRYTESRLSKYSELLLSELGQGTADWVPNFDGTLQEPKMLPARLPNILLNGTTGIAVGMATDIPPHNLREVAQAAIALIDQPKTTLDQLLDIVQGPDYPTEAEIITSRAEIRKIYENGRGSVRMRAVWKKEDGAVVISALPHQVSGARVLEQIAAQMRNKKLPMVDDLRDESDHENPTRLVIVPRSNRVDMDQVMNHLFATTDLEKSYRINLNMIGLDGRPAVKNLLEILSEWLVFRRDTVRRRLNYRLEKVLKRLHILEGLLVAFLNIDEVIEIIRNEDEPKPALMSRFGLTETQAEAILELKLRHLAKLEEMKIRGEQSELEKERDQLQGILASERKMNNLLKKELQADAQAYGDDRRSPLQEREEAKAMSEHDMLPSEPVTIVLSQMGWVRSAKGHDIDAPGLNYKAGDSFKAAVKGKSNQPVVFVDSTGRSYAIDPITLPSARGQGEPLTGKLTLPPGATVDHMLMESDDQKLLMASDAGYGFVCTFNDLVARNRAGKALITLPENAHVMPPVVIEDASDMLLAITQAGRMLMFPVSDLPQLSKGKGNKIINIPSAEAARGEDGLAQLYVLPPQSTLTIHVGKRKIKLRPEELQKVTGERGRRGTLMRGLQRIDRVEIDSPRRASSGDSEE
Method: (§3) Staphylococcus aureus Topoisomerase IV and Escherichia coli Topoisomerase IV were purchased from John Innes Enterprises. 1 unit of topoisomerase IV was cultured with 200 ng of kinetoplast DNA (kDNA) in 30 L of a reaction solution at 37° C. for 30 minutes under the conditions of 50 mM Tris-HCl (pH 7.5) (S. aureus)/50 mM HEPES-KOH (pH 7.6) (E. coli), 5 mM MgCl2 (S. aureus)/5 mM magnesium acetate (E. coli), 350 mM potassium glutamate (S. aureus)/100 mM potassium glutamate (E. coli), 5 mM dithiotheri (S. aureus)/10 mM dithiotheri (E. coli), 1.5 mM ATP (S. aureus)/1 mM ATP (E. coli), and 40% (w/v) glycerol. The reactions were stopped by adding 8 L of a reaction stop solution (40% sucrose, 100 mM Tris.HCl (pH 7.5), 1 mM EDTA, 0.5 mg/ml bromophenol blue). Agarose gel (1.0%) was poured into TAE (40 mM Tris acetate, 2 mM EDTA).

[14] = molecular target: T3, Staphylococcus aureus Topoisomerase IV (Staphylococcus aureus, UniProt P0C1S7+P0C1U9); test: as above; assay type: biochemical
T3 construct: purchased John Innes Enterprises
T3 sequence (P0C1U9 whole entry): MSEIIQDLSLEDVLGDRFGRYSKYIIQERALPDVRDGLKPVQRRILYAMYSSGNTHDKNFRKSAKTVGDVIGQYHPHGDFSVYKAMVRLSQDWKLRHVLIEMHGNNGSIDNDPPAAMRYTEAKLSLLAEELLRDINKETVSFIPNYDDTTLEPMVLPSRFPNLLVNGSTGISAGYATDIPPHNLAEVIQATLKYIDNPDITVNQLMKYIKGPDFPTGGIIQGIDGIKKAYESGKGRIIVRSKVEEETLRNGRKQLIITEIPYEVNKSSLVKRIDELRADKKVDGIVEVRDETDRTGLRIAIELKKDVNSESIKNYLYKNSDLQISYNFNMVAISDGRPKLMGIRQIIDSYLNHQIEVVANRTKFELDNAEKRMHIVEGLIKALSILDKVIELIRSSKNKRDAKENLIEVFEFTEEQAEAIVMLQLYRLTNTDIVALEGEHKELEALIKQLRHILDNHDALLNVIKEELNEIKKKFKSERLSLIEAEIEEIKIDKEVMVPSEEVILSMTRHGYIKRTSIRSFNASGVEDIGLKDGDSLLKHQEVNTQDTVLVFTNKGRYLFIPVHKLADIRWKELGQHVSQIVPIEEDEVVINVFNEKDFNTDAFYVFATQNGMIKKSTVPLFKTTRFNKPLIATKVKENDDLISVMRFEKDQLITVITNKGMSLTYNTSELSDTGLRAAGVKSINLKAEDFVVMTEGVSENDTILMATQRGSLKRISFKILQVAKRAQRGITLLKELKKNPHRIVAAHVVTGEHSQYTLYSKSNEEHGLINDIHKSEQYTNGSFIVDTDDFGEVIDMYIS
T3 sequence (P0C1S7 whole entry): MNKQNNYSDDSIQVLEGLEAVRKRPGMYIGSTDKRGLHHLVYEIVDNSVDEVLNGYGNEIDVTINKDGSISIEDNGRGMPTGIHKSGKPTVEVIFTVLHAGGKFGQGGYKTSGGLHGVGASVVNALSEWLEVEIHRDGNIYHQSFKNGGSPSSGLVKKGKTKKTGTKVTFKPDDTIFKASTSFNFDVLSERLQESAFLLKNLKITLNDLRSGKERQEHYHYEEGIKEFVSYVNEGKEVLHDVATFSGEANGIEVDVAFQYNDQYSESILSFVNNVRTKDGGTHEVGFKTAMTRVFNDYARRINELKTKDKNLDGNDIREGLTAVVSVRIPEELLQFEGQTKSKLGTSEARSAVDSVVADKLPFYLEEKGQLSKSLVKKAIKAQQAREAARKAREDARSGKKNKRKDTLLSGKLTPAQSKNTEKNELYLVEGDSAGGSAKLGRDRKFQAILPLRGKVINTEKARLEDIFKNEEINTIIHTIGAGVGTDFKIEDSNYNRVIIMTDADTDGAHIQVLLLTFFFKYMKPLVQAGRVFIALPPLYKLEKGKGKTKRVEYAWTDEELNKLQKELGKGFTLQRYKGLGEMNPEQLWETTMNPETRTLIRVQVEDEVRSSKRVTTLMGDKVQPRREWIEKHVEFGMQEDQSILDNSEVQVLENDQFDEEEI
Method: as §3

[15] = supercoiling activity, 37° C., 30 minutes, read-out: IC50 (E. coli DNA gyrase inhibitions)
[16] = decatenation of kDNA, 37° C., 30 minutes, read-out: IC50 (S. aureus topoisomerase IV inhibitions)

Structure (SMILES) | pIC50 [13] | MIC VISA Mu50 [1] [µg/mL] | MIC VRE FN-1 [2] [µg/mL] | MIC VRE NCTC 12201 [3] [µg/mL] | MIC MSSA 209P [4] [µg/mL] | MIC MRSA COL [5] [µg/mL] | MIC MRSA N315 [6] [µg/mL] | MIC MRSA OM481 [7] [µg/mL] | MIC MRSA OM584 [8] [µg/mL] | MIC S. Pneumoniae R6 [9] [µg/mL] | MIC (Gram-nagative) K-12 [10] [µg/mL] | MIC (Gram-nagative) PAO1 [11] [µg/mL] | pIC50 [12, 15] | pIC50 [14, 16] | other results
Cc1ccc(CCC(=O)OCC2OC(Oc3c(-c4ccc(O)c(O)c4)oc4cc(O)cc(O)c4c3=O)C(OC(=O)CCc3ccc(C)cc3)C(O)C2O)cc1 [Compound 14l, 2-(3′,4′-Dihydroxyphenyl)-5,7-dihydroxy-3-β-D-{2″,6″-di-O-[3′″-(4-methylphenylpropanoyl)]}galactosyl-4H-chromen-4-one] | 5.10 |  |  |  |  |  |  |  |  |  |  |  |  |  | MIC ([1]; Staphylococcus aureus, VISA, read-out: MIC VISA Mu50): 16 µg/mL (≈ 21.1 µM); MIC ([2]; Enterococcus, VRE, read-out: MIC VRE FN-1): 32 µg/mL (≈ 42.3 µM); MIC ([3]; Enterococcus, NCTC 12201 / VRE, read-out: MIC VRE NCTC 12201): 32 µg/mL (≈ 42.3 µM); MIC ([4]; Staphylococcus aureus, 209P / MSSA, read-out: MIC MSSA 209P): 16 µg/mL (≈ 21.1 µM); MIC ([5]; Staphylococcus aureus, MRSA): 32 µg/mL (≈ 42.3 µM); MIC ([6]; Staphylococcus aureus, MRSA, read-out: MIC MRSA N315): 16 µg/mL (≈ 21.1 µM); MIC ([7]; Staphylococcus aureus, MRSA, read-out: MIC MRSA OM481): 16 µg/mL (≈ 21.1 µM); MIC ([8]; Staphylococcus aureus, MRSA, read-out: MIC MRSA OM584): 16 µg/mL (≈ 21.1 µM); MIC ([9]; Streptococcus pneumoniae, R6, read-out: MIC S. Pneumoniae R6): 32 µg/mL (≈ 42.3 µM); MIC ([10]; K12, MIC after 24 h, read-out: MIC (Gram-nagative) K-12): > 128 µg/mL; MIC ([11]; read-out: MIC (Gram-nagative) PAO1): > 128 µg/mL; pIC50 [12]: 5.75; pIC50 [14]: 5.59
O=C(CCc1ccc(F)cc1)OC[C@H]1O[C@@H](Oc2c(-c3ccc(O)c(O)c3)oc3cc(O)cc(O)c3c2=O)[C@H](OC(=O)CCc2ccc(F)cc2)[C@@H](O)[C@H]1O [Compound 14i, 2-(3′,4′-Dihydroxyphenyl)-5,7-dihydroxy-3-β-D-{2″,6″-di-O-[3′″-(4-fluorophenylpropanoyl)]}galactosyl-4H-chromen-4-one] | 5.15 | 0.5 (≈ 0.654 µM) | 0.25 (≈ 0.327 µM) | 0.25 (≈ 0.327 µM) | 0.13 (≈ 0.17 µM) | 0.5 (≈ 0.654 µM) | 0.13 (≈ 0.17 µM) | 0.13 (≈ 0.17 µM) | 0.13 (≈ 0.17 µM) | 0.13 (≈ 0.17 µM) | >128 | >128 | 6.11 | 6.66 | 
O=C(OC[C@H]1O[C@@H](Oc2c(-c3ccc(O)c(O)c3)oc3cc(O)cc(O)c3c2=O)[C@H](OC(=O)c2ccc(F)cc2)[C@@H](O)[C@H]1O)c1ccc(F)cc1 [Compound 14c, 2-(3′,4′-Dihydroxyphenyl)-5,7-dihydroxy-3-β-D-[2″,6″-di-O-(4-fluorobenzoyl)]galactosyl-4H-chromen-4-one] | 5.15 | 2 (≈ 2.82 µM) | 4 (≈ 5.65 µM) | 4 (≈ 5.65 µM) | 4 (≈ 5.65 µM) | 8 (≈ 11.3 µM) | 8 (≈ 11.3 µM) | 2 (≈ 2.82 µM) | 2 (≈ 2.82 µM) | 4 (≈ 5.65 µM) | >128 | >128 | 6.42 | 6.28 | 
O=C(CCCc1ccc(F)cc1)OC[C@H]1O[C@@H](Oc2c(-c3ccc(O)c(O)c3)oc3cc(O)cc(O)c3c2=O)[C@H](OC(=O)CCCc2ccc(F)cc2)[C@@H](O)[C@H]1O [Compound 14j, 2-(3′,4′-Dihydroxyphenyl)-5,7-dihydroxy-3-β-D-{2″,6″-di-O-[3′″-(4-fluorophenylbutanoyl)]}galactosyl-4H-chromen-4-one] | 5.05 | 4 (≈ 5.05 µM) | 8 (≈ 10.1 µM) | 8 (≈ 10.1 µM) | 4 (≈ 5.05 µM) | 16 (≈ 20.2 µM) | 4 (≈ 5.05 µM) | 2 (≈ 2.52 µM) | 2 (≈ 2.52 µM) | 2 (≈ 2.52 µM) | >128 | >128 | 5.53 | 5.53 | 
O=C(Cc1ccc(F)cc1)OC[C@H]1O[C@@H](Oc2c(-c3ccc(O)c(O)c3)oc3cc(O)cc(O)c3c2=O)[C@H](OC(=O)Cc2ccc(F)cc2)[C@@H](O)[C@H]1O [Compound 14e, 2-(3′,4′-Dihydroxyphenyl)-5,7-dihydroxy-3-β-D-[2″,6″-di-O-(4-fluorophenylacetyl)]galactosyl-4H-chromen-4-one] | 5.14 | 1 (≈ 1.36 µM) | 0.5 (≈ 0.679 µM) | 0.5 (≈ 0.679 µM) | 1 (≈ 1.36 µM) | 8 (≈ 10.9 µM) | 1 (≈ 1.36 µM) | 1 (≈ 1.36 µM) | 1 (≈ 1.36 µM) | 0.5 (≈ 0.679 µM) | >128 | >128 | 5.98 | 6.34 | 
O=C(CCCCc1ccc(F)cc1)OC[C@H]1O[C@@H](Oc2c(-c3ccc(O)c(O)c3)oc3cc(O)cc(O)c3c2=O)[C@H](OC(=O)CCCCc2ccc(F)cc2)[C@@H](O)[C@H]1O [Compound 14k, 2-(3′,4′-Dihydroxyphenyl)-5,7-dihydroxy-3-β-D-{2″,6″-di-O-[3′″-(4-fluorophenylpentanoyl)]}galactosyl-4H-chromen-4-one] | < 4.92 | 16 (≈ 19.5 µM) | 16 (≈ 19.5 µM) | 16 (≈ 19.5 µM) | 4 (≈ 4.87 µM) | 16 (≈ 19.5 µM) | 2 (≈ 2.44 µM) | 4 (≈ 4.87 µM) | 4 (≈ 4.87 µM) | 8 (≈ 9.75 µM) | >128 | >128 | 5.30 | 5.39 | 
Cc1ccc(CCC(=O)OC[C@H]2O[C@@H](Oc3c(-c4ccc(O)c(O)c4)oc4cc(O)cc(O)c4c3=O)[C@H](OC(=O)CCc3ccc(C)cc3)[C@@H](O)[C@H]2O)cc1 [Compound 14h, 2-(3′,4′-Dihydroxyphenyl)-5,7-dihydroxy-3-β-D-{2″,6″-di-O-[3′″-(4-methylphenylpropanoyl)]}galactosyl-4H-chromen-4-one] | 5.13 | 0.5 (≈ 0.661 µM) | 0.5 (≈ 0.661 µM) | 0.5 (≈ 0.661 µM) | 0.25 (≈ 0.33 µM) | 1 (≈ 1.32 µM) | 0.25 (≈ 0.33 µM) | 0.25 (≈ 0.33 µM) | 0.25 (≈ 0.33 µM) | 0.25 (≈ 0.33 µM) | >128 | >128 | 5.68 | 5.83 | 
